Reference: US20190038575A1, “Methods for Protecting Cells During Cancer Therapy” (Applied Biology, Inc., priority 2017, published 2019)

Experiments:
[1] = Safety study: topical application to entire scalp with BP, HR and EKG holter monitoring; type: in vivo, human; settings: topical application across the entire scalp, synephrine at up to 6 g
Method: Use of weak acting A1AR agonists or agonists having a low affinity for all other adrenergic receptors, as described herein, can provide methods of treatment and/or prophylaxis that are a substantial improvement over conventional methods of use. Improvements can include enhancements in efficacy and/or safety. For example, safety tests were performed with embodiments of the composition using electrocardiogram (EKG) and blood pressure/heart rate (BP/HR) monitoring. […] Details of the study are described in the examples below.
A study was conducted to determine the safety of a topical solution containing 37% synephrine HCl (the composition of formula 01). 10 mL of the topical solution was applied to the entire scalp and rubbed thoroughly at a base line. An additional 10 mL was applied after 2 hours. Blood pressure (BP), heart rate (HR) and EKG measurements were taken using a wearable holter monitor.
In total, 40 female subjects ages 18-65 in good health were enrolled. 30 of the subjects received the active solution and 10 received the placebo (vehicle only). To evaluate the effect of the composition on systemic hemodynamic parameters, a holter monitor was placed on each subject. At baseline, BP and HR were recorded. BP, HR, and EKG data were collected over a 24-hour period via the holter monitor. […] EKG parameters (e.g., ST segments, arrhythmias, etc.) were normal throughout the 24 hour period.

A1AR [2] = settings: weak A1AR agonist; Brown 1988; cited from earlier work
A1AR [3] = settings: Ma 2010, Hibino 2009; cited from earlier work
[4] = oral form; Stohs 2011; cited from earlier work
[5] = system: postjunctional alpha2-adrenoceptors; settings: Brown 1988; cited from earlier work
[6] = system: postjunctional alpha1-adrenoceptors; settings: Brown 1988; cited from earlier work

Row | Structure (SMILES) | adverse events (EKG and BP/HR monitoring) [1] | potency less than that of phenylephrine (A1AR [2]) | A1AR binding affinity (A1AR [3]) | cardiac or hemodynamic changes [4] | potency of the (+) form relative to the (−) form [5] | potency of the (+) form relative to the (−) form [6]
1 | CNCC(O)c1ccc(O)cc1 (stereo not drawn) [synephrine, p-synephrine] | No adverse events | approximately 150 fold | low | not been shown to induce significant cardiac or hemodynamic changes | – | –
2 | CNC[C@@H](O)c1ccc(O)cc1 [S-(+)-synephrine] | – | – | – | – | one to two orders of magnitude less | one to two orders of magnitude less
